Here are results for one sequence from patent US7279161B2, “Factor IX/factor IXa activating antibodies and antibody derivatives” (Baxter Aktiengesellschaft, priority 1999, dated 2007).

This assay concerns the target T1, human FIXa (Homo sapiens, UniProt P00740).
T1 construct: with (+) and without (−) addition of 50 ng human FIXaβ; purchased ERL (Enzyme Research Laboratories)
As to the kind of experiment: Chromogenic FVIII-like (FXa generation) assay with human FIXa added. In kind it is biochemical. In short, it runs like this: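 FXa generation at 37 °C with bovine FIXa/FX plus phospholipids, 25 mM CaCl2 stock, S-2222 substrate and thrombin inhibitor I-2581; 50 ng human FIXa added per reaction. Absorbance at 405 and 490 nm read from 5 min to 2 h against a reagent blank.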

T1 sequence (P00740 47-191 limits assumed): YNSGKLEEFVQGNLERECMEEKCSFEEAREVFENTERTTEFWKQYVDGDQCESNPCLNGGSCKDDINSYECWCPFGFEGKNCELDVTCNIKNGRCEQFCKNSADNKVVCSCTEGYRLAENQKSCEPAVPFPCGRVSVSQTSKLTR
T1 sequence (P00740 227-461 limits assumed): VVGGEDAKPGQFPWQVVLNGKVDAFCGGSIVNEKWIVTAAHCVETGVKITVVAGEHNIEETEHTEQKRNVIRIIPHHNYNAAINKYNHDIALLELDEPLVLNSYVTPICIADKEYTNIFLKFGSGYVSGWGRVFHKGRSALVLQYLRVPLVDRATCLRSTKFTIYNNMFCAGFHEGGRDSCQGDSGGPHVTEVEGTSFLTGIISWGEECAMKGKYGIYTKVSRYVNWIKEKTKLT

In the case of RRREGGGYYVNWYFDRRR [A1/3], under “2.9 nM human FIXa”, the “chromogenic FVIII-like activity (FXa generation)” value is “readily measurable FXa generation”. The chromogenic activity entry (12 μM peptide, 2.3 nM human FIXa) is “virtually unchanged”. Besides, the “chromogenic FVIII-like activity” value (24 μM, with vs without 2.3 nM human FIXa) was “the reaction takes place only in the presence of human FIXa”.
